Experimental data as given in US7344734B2, “Powder formulation” (Rijksuniversiteit Groningen, priority 2000, dated 2008).

What was measured:
Type in all cases: physicochemical
[1] = Dry laser diffraction analysis of Colistin powder (RODOS dispersion)
Experimental: A lactose size fraction of 106-150 μm, derived from 100 M lactose (DMV International, Veghel, The Netherlands) was used as excipient. The fraction was prepared by subsequent vibratory sieving (20 minutes in a Fritsch Analysette 3, Idar-Oberstein, Germany) and air jet sieving (10 minutes in an Alpine A200, Augsburg, Germany) of small quantities (approx. 50 g) of the starting material. Micronized Colistin was prepared by fluid energy milling (GfM, Hamburg, Germany), but because the size distribution of the active ingredient was not satisfactory, size reduction of the crystalline material was continued for 26.5 hours in a ball mill (50 g in a container of 750 ml, filled with ceramic balls of different sizes to a filling degree of 67%). The container was placed on a home constructed drive. Size distributions before and after milling in the ball mill were measured with laser diffraction technique (Fraunhofer theory, using Sympatec HELOS Compact, model KA with 100 mm lens) using dry dispersion with a RODOS disperser at 4 bar.

[2] = Laser diffraction analysis of the aerosol cloud from the test inhaler (cyclone); conditions: 60 l/min, 20 mg per inhalation, lactose fraction 63-106 μm, mean of 6 inhalations
Experimental: Inhalation experiments with the mixture were performed at 60 l/min with a test inhaler (see FIG. 1), having the same disintegration principle (cyclone) as the Colistin dry powder inhaler (prototype). […]
(§1) The aerosol cloud from the inhaler was characterized with a laser diffraction technique (Sympatec HELOS Compact, model KA with 100 mm lens) using the Fraunhofer theory. A special inhaler adapter was used in order to adjust the required flow rate through the inhaler device. The adapter consisted of a cylindrical chamber with side tubes connecting the adapter at both sides to the housing of the laser diffraction apparatus. The inhaler device was connected to the front of the adapter, whereas the vacuum system was connected to the rear end of the adapter. Thus, a closed system was created through which the flow rate can be controlled very carefully and in which the aerosol cloud passes the laser beam for the measurement. Standard HELOS software was used: start and stop of the measurement was triggered on channel 32 with 0.1% difference in optical signal (compared with the signal during reference measurement). The mass fraction of the dose delivered by the inhaler was not analyzed during these experiments (no particle collector in line with the adapter).
II The physical mixture with 83.3% Colistin was also tested with the test inhaler at 20, 30, 40 and 50 l/min. […]

[3] = Laser diffraction analysis of the aerosol cloud from the Pharmachemie Cyclohaler (ISF inhaler); conditions: 60 l/min, 10 mg per capsule, six inhalations
Excerpt: as §1
Pure micronized Colistin was also inhaled with a commercial DPI (Pharmachemie Cyclohaler equals ISF Inhaler equals Novartis Foradil Inhaler, see FIG. 3), using the same (laser diffraction) procedures. Six hard gelatin capsules (no. 3) were filled with 10 mg per capsule and the capsules were sealed before use. Inhalation time was 3 seconds. […]

[4] = primary Colistin particles, RODOS dispersion

Colistin
mean diameter (X50-value) ([1]; after size reduction in the ball mill (26.5 hours), RODOS dispersion, n=3): 2.14 μm | X100-value ([1]; after size reduction in the ball mill, RODOS dispersion): 87.0 μm | mean diameter (X50-value) ([1]; before size reduction in the ball mill, RODOS disperser at 4 bar): 6.43 μm | X100-value ([1]; before size reduction in the ball mill, RODOS dispersion): 51.0 μm | X-50 (μm) From cum. undersize curve [1, 4]: 2.1 μm | X-90 (μm) From cum. Undersize curve [1, 4]: 31.0 μm | X-50 (μm) From cum. undersize curve [2]: 2.3 μm | X-90 (μm) From cum. Undersize curve [2]: 7.5 μm | average median diameter for the aerosol cloud [3]: 18.23 micron
